Legend:
[1] = target: Angiopoietin-1 receptor (Homo sapiens) (UniProt Q02763); test: Inhibition of TIE2 (unknown origin) at 10 uM
[2] = target: CDK2/Cyclin A2 (Homo sapiens) (UniProt P24941+P20248); test: Inhibition of CDK2/CyclinA (unknown origin) at 10 uM; assay type: protein-complex assay
[3] = target: Mast/stem cell growth factor receptor Kit (Homo sapiens) (UniProt P10721); test: Inhibition of cKIT (unknown origin) at 10 uM
[4] = target: T1, Interleukin-1 receptor-associated kinase 4 (Homo sapiens) (UniProt Q9NWZ3); test: Inhibition of IRAK4 (unknown origin) at 10 uM
T1 sequence (whole entry): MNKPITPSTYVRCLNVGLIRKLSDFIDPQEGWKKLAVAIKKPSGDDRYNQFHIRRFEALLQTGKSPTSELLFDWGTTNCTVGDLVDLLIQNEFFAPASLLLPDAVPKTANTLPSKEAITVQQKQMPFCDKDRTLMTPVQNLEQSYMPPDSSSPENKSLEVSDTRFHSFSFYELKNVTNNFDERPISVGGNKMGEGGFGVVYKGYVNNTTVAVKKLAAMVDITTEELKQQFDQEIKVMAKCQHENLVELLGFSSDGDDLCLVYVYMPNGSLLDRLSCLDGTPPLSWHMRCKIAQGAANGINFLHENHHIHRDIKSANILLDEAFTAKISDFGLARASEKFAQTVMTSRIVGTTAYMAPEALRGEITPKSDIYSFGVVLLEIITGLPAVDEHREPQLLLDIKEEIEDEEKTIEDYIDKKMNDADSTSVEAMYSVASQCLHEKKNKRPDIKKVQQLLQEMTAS

[5] = target: Tyrosine-protein kinase SYK (Homo sapiens) (UniProt P43405); test: Inhibition of SYK (unknown origin) at 10 uM
[6] = target: Mitogen-activated protein kinase 3 (Homo sapiens) (UniProt P27361); test: Inhibition of ERK1 (unknown origin) at 10 uM
[7] = target: Proto-oncogene tyrosine-protein kinase Src (Homo sapiens) (UniProt P12931); test: Inhibition of SRC (unknown origin) at 10 uM
[8] = target: RAC-alpha serine/threonine-protein kinase (Homo sapiens) (UniProt P31749); test: Inhibition of AKT1 (unknown origin) at 10 uM
[9] = target: Serine/threonine-protein kinase pim-1 (Homo sapiens) (UniProt P11309); test: Inhibition of PIM1 (unknown origin) at 10 uM
[10] = target: Vascular endothelial growth factor receptor 2 (Homo sapiens) (UniProt P35968); test: Inhibition of VEGFR2 (unknown origin) at 10 uM
[11] = target: Serine/threonine-protein kinase B-raf (Homo sapiens) (UniProt P15056); test: Inhibition of B-RAF (unknown origin) at 10 uM
[12] = target: T2, Mitogen-activated protein kinase 8 (Homo sapiens, UniProt P45983); test: Inhibition of JNK1 (unknown origin) expressed in HEK293 cells assessed as anisomycin-induced c-Jun phosphorylation at 10 uM incubated for 30 mins by Western blot analysis relative to anisomycin; assay type: cell-based; design: scale not given: the % may be the effect or the level left
[13] = target: Tyrosine-protein kinase receptor UFO (Homo sapiens) (UniProt P30530); test: Inhibition of AXL (unknown origin) at 10 uM
[14] = target: Platelet-derived growth factor receptor beta (Homo sapiens) (UniProt P09619); test: Inhibition of PDGFRbeta (unknown origin) at 10 uM
[15] = target: Serine/threonine-protein kinase PLK3 (Homo sapiens) (UniProt Q9H4B4); test: Inhibition of PLK3 (unknown origin) at 10 uM
[16] = target: Hepatocyte growth factor receptor (Homo sapiens) (UniProt P08581); test: Inhibition of cMET (unknown origin) at 10 uM
[17] = target: Rho-associated protein kinase 2 (Homo sapiens) (UniProt O75116); test: Inhibition of ROCK2 (unknown origin) at 10 uM
[18] = target: Serine/threonine-protein kinase mTOR (Homo sapiens) (UniProt P42345); test: Inhibition of mTOR (unknown origin) at 10 uM
[19] = target: Tyrosine-protein kinase CSK (Homo sapiens) (UniProt P41240); test: Inhibition of CSK (unknown origin) at 10 uM
[20] = target: T2, Mitogen-activated protein kinase 8; test: Inhibition of JNK1 (unknown origin) expressed in HEK293 cells assessed as anisomycin-induced JNK phosphorylation at 10 uM incubated for 30 mins by Western blot analysis relative to anisomycin; assay type: cell-based; design: scale not given: the % may be the effect or the level left
[21] = target: Insulin receptor (Homo sapiens) (UniProt P06213); test: Inhibition of INSR (unknown origin) at 10 uM
[22] = target: Receptor-type tyrosine-protein kinase FLT3 (Homo sapiens) (UniProt P36888); test: Inhibition of FLT3 (unknown origin) at 10 uM
[23] = system: HEK293; test: Cytotoxicity against HEK293 after 24 hrs by CellTiter-Glo luminescent cell viability assay; assay type: cell-based; settings: Homo sapiens, HEK293, 24 h
[24] = target: Fibroblast growth factor receptor 3 (Homo sapiens) (UniProt P22607); test: Inhibition of FGFR3 (unknown origin) at 10 uM
[25] = target: T3, Serine/threonine-protein kinase Chk1 (Homo sapiens) (UniProt O14757); test: Inhibition of CHK1 (unknown origin) at 10 uM
T3 sequence (whole entry): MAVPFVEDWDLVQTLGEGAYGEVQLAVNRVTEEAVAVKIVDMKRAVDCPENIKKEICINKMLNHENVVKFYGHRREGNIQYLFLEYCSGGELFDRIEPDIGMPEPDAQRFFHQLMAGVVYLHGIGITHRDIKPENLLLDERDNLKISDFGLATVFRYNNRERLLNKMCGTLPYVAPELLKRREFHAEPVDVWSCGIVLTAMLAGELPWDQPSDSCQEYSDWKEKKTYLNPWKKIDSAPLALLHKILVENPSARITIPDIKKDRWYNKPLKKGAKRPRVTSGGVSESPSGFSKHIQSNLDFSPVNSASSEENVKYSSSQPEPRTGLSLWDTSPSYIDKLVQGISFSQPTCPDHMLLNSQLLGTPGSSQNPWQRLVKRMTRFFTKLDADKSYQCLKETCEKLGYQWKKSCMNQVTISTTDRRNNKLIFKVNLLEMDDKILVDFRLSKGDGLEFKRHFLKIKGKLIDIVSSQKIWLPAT

[26] = target: Protein kinase C alpha type (Homo sapiens) (UniProt P17252); test: Inhibition of PKCalpha (unknown origin) at 10 uM

Sequence of Mitogen-activated protein kinase 3 (Homo sapiens) (P27361 whole entry): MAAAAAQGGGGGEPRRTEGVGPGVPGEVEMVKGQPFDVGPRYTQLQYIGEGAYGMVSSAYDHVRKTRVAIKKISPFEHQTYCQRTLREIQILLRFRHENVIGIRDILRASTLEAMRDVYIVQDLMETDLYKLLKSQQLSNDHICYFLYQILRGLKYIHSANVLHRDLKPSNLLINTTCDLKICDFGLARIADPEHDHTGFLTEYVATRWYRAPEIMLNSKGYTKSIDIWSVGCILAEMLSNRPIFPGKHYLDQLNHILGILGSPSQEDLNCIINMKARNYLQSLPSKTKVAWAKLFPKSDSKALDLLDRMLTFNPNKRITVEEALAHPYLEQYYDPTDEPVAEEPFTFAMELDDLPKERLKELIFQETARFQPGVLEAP
T2 sequence (P45983 whole entry): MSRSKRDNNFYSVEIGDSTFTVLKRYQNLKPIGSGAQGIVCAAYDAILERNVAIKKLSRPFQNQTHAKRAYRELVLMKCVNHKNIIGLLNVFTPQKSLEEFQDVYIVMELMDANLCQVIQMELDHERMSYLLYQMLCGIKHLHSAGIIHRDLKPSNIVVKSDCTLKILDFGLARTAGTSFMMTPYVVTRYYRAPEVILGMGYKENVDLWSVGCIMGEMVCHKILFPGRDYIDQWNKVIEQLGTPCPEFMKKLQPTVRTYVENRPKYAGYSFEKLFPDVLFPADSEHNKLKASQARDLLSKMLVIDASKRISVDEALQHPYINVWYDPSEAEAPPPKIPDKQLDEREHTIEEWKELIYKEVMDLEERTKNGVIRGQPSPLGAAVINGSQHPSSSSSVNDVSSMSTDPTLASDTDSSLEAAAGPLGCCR
Sequence of Tyrosine-protein kinase receptor UFO (Homo sapiens) (P30530 whole entry): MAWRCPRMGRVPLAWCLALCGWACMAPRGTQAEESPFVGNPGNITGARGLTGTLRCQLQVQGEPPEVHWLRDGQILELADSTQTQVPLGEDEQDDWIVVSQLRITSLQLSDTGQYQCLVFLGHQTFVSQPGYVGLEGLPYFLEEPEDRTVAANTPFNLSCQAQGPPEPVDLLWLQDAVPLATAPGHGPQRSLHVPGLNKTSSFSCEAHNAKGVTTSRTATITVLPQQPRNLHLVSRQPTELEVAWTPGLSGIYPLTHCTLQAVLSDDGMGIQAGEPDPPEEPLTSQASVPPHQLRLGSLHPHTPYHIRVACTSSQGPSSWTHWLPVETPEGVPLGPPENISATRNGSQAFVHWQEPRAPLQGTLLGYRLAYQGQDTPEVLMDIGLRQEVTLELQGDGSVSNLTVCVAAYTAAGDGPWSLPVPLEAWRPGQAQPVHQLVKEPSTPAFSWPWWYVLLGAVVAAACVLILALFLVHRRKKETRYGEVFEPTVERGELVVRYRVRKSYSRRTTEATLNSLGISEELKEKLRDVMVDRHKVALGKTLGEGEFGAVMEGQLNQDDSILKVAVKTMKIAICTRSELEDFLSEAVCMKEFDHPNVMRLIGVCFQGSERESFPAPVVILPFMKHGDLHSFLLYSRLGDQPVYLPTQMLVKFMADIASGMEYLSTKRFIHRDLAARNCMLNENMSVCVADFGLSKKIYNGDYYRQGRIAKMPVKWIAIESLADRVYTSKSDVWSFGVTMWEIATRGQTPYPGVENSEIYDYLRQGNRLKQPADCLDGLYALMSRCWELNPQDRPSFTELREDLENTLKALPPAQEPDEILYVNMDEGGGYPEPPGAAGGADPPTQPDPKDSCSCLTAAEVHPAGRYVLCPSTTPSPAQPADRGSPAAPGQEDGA
Sequence of Receptor-type tyrosine-protein kinase FLT3 (Homo sapiens) (P36888 whole entry): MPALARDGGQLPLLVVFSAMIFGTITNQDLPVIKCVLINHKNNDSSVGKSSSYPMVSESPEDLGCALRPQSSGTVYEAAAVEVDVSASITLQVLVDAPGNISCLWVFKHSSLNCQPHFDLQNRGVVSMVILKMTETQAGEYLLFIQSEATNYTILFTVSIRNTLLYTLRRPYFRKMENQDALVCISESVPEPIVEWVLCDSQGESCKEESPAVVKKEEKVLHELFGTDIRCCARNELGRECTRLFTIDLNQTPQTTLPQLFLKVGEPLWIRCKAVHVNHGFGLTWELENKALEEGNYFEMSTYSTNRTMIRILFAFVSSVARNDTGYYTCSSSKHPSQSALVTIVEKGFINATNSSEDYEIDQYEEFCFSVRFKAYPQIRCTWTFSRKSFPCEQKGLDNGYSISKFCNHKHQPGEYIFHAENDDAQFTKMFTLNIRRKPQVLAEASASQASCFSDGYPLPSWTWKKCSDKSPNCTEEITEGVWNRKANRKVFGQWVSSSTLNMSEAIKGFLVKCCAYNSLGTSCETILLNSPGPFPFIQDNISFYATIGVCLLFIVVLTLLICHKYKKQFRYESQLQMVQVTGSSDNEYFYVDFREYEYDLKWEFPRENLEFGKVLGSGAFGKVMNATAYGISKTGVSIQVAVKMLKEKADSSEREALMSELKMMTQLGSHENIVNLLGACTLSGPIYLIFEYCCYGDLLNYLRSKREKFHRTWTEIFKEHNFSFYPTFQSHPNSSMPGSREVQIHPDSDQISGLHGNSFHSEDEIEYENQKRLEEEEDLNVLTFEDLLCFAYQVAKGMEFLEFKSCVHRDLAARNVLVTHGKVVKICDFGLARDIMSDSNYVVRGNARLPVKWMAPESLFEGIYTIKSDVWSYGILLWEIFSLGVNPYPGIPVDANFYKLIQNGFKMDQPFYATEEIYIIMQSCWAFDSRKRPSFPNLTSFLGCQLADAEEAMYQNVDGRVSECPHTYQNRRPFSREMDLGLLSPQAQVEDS
Sequence of Rho-associated protein kinase 2 (Homo sapiens) (O75116 whole entry, looked up): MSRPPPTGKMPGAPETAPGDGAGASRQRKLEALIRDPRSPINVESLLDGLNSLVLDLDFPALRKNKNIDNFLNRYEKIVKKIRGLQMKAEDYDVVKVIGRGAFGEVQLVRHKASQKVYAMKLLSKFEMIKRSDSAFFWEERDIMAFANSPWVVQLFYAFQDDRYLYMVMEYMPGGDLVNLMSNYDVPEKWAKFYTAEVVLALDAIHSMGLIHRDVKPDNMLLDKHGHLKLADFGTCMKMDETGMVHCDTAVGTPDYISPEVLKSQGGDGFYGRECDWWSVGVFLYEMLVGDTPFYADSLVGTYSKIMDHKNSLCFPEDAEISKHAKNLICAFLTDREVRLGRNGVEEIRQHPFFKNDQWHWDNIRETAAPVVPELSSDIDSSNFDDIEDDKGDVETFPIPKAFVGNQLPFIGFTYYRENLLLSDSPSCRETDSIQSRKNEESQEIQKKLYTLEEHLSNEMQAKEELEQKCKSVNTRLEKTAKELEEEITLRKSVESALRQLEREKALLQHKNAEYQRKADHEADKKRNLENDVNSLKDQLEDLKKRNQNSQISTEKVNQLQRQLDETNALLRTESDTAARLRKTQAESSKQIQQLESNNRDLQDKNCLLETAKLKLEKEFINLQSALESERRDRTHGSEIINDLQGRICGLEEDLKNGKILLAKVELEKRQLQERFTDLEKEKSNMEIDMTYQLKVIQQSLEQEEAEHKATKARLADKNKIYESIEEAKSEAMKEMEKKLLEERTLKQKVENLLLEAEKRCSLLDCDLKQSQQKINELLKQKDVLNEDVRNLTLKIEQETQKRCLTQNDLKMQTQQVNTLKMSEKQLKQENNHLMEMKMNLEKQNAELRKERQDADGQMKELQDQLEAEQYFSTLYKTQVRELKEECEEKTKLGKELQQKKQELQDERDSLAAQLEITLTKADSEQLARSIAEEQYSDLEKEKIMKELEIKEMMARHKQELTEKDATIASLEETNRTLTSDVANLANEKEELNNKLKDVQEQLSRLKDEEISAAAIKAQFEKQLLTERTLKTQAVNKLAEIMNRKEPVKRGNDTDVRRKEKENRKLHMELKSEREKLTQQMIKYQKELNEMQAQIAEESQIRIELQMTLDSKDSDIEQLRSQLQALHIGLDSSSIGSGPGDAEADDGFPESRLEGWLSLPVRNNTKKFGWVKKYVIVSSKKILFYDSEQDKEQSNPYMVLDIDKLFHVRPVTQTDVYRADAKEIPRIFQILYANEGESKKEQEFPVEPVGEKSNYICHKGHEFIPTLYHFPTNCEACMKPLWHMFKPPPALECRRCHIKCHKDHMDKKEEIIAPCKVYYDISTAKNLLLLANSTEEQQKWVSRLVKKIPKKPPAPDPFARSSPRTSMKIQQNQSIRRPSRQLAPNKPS
Sequence of Proto-oncogene tyrosine-protein kinase Src (Homo sapiens) (P12931 2-536 limits assumed): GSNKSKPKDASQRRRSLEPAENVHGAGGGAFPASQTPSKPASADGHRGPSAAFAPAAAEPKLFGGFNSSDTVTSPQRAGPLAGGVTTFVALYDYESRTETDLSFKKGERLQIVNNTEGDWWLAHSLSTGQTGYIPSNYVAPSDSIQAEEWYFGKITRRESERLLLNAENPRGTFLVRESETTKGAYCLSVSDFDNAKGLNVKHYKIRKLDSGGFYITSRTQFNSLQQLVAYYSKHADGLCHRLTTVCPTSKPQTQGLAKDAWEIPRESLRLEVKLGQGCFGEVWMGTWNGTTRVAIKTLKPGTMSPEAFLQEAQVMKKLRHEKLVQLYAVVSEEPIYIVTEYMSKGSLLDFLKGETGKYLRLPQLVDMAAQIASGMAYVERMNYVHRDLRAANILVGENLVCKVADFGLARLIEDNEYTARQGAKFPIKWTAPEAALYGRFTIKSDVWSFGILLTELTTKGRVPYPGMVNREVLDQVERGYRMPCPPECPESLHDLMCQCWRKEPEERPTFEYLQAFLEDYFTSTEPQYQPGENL
Sequence of Serine/threonine-protein kinase pim-1 (Homo sapiens) (P11309 whole entry, looked up): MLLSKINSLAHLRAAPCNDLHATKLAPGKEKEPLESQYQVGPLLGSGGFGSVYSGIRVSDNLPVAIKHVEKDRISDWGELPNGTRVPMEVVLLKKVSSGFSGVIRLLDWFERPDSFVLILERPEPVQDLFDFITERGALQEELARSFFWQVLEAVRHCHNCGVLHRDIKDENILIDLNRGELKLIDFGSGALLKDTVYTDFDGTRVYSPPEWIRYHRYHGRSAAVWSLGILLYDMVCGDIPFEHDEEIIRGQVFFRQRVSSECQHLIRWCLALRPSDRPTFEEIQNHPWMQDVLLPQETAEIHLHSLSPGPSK

Compound `CN1CCN(c2ccc(Nc3ncc4cc(Oc5c(Cl)cccc5Cl)c(=O)n(C)c4n3)cc2)CC1` has an inhibition [1] of 3%, an inhibition [2] of 14% and an inhibition [3] of 47%. The inhibition [4] was 2%, the inhibition [5] was 0% and the inhibition [6] was 10%. The inhibition [7] was 72%, the inhibition [8] was 7% and the inhibition [9] was 13%. The inhibition [10] was 24%, the inhibition [11] was 50% and the Activity [12] was 60.9%. For the same compound, the inhibition [13] was 0%, the inhibition [14] was 41% and the inhibition [15] was 0%. For the same compound, the inhibition [16] was 4%, the inhibition [17] was 3% and the inhibition [18] was 7%. The inhibition [19] was 8%, the Activity [20] was 45% and the inhibition [21] was 0%. For the same compound, the inhibition [22] was 6%, the IC50 [23] was > 22.6 µM and the inhibition [24] was 9%. The inhibition [25] was 2% and the inhibition [26] was 8%.

Compound `CN1CCN(c2ccc(Nc3ncc4cc(Oc5ccc(F)cc5F)c(=O)n(C)c4n3)cc2)CC1` has an inhibition [1] of 5%, an inhibition [2] of 0% and an inhibition [3] of 96%. The inhibition [4] was 16%, the inhibition [5] was 13% and the inhibition [6] was 5%. It also gave an inhibition [7] of 99%, an inhibition [8] of 0% and an inhibition [9] of -4%. The inhibition [10] was 98%, the inhibition [11] was 53% and the Activity [12] was 76.9%. It also gave an inhibition [13] of 9%, an inhibition [14] of 100% and an inhibition [15] of 1%. The inhibition [16] was 0%, the inhibition [17] was 14% and the inhibition [18] was 0%. The inhibition [19] was 20%, the Activity [20] was 133% and the inhibition [21] was 5%. The inhibition [22] was 6%, the IC50 [23] was > 30 µM and the inhibition [24] was 0%. The inhibition [25] was 4% and the inhibition [26] was 12%.

`Cn1c(=O)c(Oc2ccc(F)cc2F)cc2cnc(Nc3ccc(N4CCC(O)CC4)cc3)nc21` was tested, and the inhibition [1] was 10%, the inhibition [2] was 11% and the inhibition [3] was 100%. The inhibition [4] was 24%, the inhibition [5] was 26% and the inhibition [6] was 9%. For the same compound, the inhibition [7] was 100%, the inhibition [8] was 11% and the inhibition [9] was 22%. The inhibition [10] was 100%, the inhibition [11] was 61% and the Activity [12] was 57.5%. For the same compound, the inhibition [13] was 9%, the inhibition [14] was 100% and the inhibition [15] was 33%. The inhibition [16] was 11%, the inhibition [17] was 12% and the inhibition [18] was 22%. It also gave an inhibition [19] of 34%, an Activity [20] of 29.6% and an inhibition [21] of 8%. The inhibition [22] was 11%, the IC50 [23] was > 30 µM and the inhibition [24] was 50%. The inhibition [25] was -1% and the inhibition [26] was 13%.

With `CN1CCN(CCCNc2ncc3cc(Oc4ccc(F)cc4F)c(=O)n(C)c3n2)CC1` the inhibition [1] was 0%, the inhibition [2] was 3% and the inhibition [3] was 8%. The inhibition [4] was 16%, the inhibition [5] was 0% and the inhibition [6] was 0%. The inhibition [7] was 18%, the inhibition [8] was 0% and the inhibition [9] was 0%. The inhibition [10] was 30%, the inhibition [11] was 13% and the Activity [12] was 137%. It also gave an inhibition [13] of 4%, an inhibition [14] of 29% and an inhibition [15] of 0%. For the same compound, the inhibition [16] was 0%, the inhibition [17] was 3% and the inhibition [18] was 9%. The inhibition [19] was 4%, the Activity [20] was 153% and the inhibition [21] was 2%. For the same compound, the inhibition [22] was 0%, the IC50 [23] was > 30 µM and the inhibition [24] was 0%. The inhibition [25] was 8% and the inhibition [26] was 13%.

`CN(C)CCNc1ncc2cc(Oc3ccc(F)cc3F)c(=O)n(C)c2n1` was tested, and the inhibition [1] was 0%, the inhibition [2] was 13% and the inhibition [3] was 0%. The inhibition [4] was 8%, the inhibition [5] was 3% and the inhibition [6] was 5%. For the same compound, the inhibition [7] was 6%, the inhibition [8] was 5% and the inhibition [9] was 1%. The inhibition [10] was 1%, the inhibition [11] was 9% and the Activity [12] was 110%. The inhibition [13] was 0%, the inhibition [14] was 5% and the inhibition [15] was 0%. The inhibition [16] was 0%, the inhibition [17] was 2% and the inhibition [18] was 5%. For the same compound, the inhibition [19] was 5%, the Activity [20] was 104% and the inhibition [21] was 0%. The inhibition [22] was 4%, the IC50 [23] was > 30 µM and the inhibition [24] was 7%. The inhibition [25] was 3% and the inhibition [26] was 0%.

From ChEMBL document CHEMBL3745672, “Novel compounds reducing IRS-1 serine phosphorylation for treatment of diabetes” (Bioorg Med Chem Lett, 2016)
